In patent publication US12286401B2, “Small molecules that sensitize HIV-1 infected cells to antibody dependent cellular cytotoxicity” (THE TRUSTEES OF THE UNIVERSITY OF PENNSYLVANIA, priority 2018, dated 2025):
“And” between values parts separate entries of the source, which are not always exact repeats. Equal entries are not always repeated. “Also recorded” adds a separate entry of the source.

tested on: CH58TF infected primary CD4+ T-cells; assay: HIV+ patient sera/plasma recognition of CH58TF infected primary CD4+ T-cells (flow cytometry cell-surface staining); format: cell-based, HIV-1; details: Human immunodeficiency virus 1, T-cell, read-out: Fold Over DMSO (patient sera, n = 3)
Experimental: Cell-surface staining of primary CD4+ T cells from healthy HIV uninfected individuals or CEM-NKr cells is performed, as described in Prevost, “Influence of the Envelope gp120 Phe 43 Cavity on HIV-1 Sensitivity to Antibody-Dependent Cell-Mediated Cytotoxicity Responses,” 2017, J. Virol 91; Richard, “CD4 mimetics sensitize HIV-1-infected cells to ADCC,” 2015, Proc. Natl. Acad. Sci. USA, 112:E2687-2694; Richard, “Small CD4 Mimetics Prevent HIV-1 Uninfected Bystander CD4+ T Cell Killing Mediated by Antibody-dependent Cell-mediated Cytotoxicity,” 2016, EBioMedicine 3:122-134; Veillette, “The HIV-1 gp120 CD4-Bound Conformation Is Preferentially Targeted by Antibody-Dependent Cellular Cytotoxicity-Mediating Antibodies in Sera from HIV-1-Infected Individuals,” 2015, J. Virol., 89:545-551; Veillette, “Interaction with cellular CD4 exposes HIV-1 envelope epitopes targeted by antibody-dependent cell-mediated cytotoxicity,” 2014, J. Virol., 88:2633-2644; Richard, “Uninfected Bystander Cells Impact the Measurement of HIV-Specific Antibody-Dependent Cellular Cytotoxicity Responses,” 2018, MBio. 9(2): e00358-18; Richard, “BST-2 Expression Modulates Small CD4-Mimetic Sensitization of HIV-1-Infected Cells to Antibody-Dependent Cellular Cytotoxicity,” 2017, J. Virol. 91(11):e00219-17. Binding of HIV-1 infected cells by HIV+ sera (1:1000 dilution) or anti-Env Abs (such as 17b) is performed […] in vitro infection at 37° C. in presence of different concentrations of the MCG analogs or with equivalent volume of vehicle (DMSO). Cells infected with HIV-1 primary isolates are stained intracellularly for HIV-1 p24 using the Cytofix/Cytoperm Fixation/Permeabilization Kit (BD Biosciences, Mississauga, ON, Canada) and then fluorescent anti-p24 mAb (PE-anti-p24, clone KC57; Beckman Coulter/Immunotech, Hialeah, FL) (1:100 final concentration). The percentage of infected cells (p24^+ or GFP+ cells) is determined by gating the living cell population based on the viability dye staining. Samples are analyzed on an LSRII cytometer (BD Biosciences, Mississauga, ON, Canada) and data analysis is performed using FlowJo vX0.7 (Tree Star, Ashland, OR, USA).
HIV+ Patient Sera (n=3) Recognition of CH58TF Infected Primary CD4+ T-Cells
Staining with patient sera and 50 μM of compounds given as a fold change over DMSO (vehicle).
Briefly, Primary CD4 T cells isolated from PBMC were infected with HIV-1CH58TF for 48 hours. For cell surface staining, 5 μg/ml 17b (FIG. 15A) or 1:1000 diluted HIV+ plasma (n=15) (FIG. 15B) were used in the presence of the different MCG analogs (50 μM), (+)-BNM-III-170 or with an equivalent volume of vehicle (DMSO). An Alexa Fluor 647-conjugated anti-human IgG secondary Ab was then used for fluorescent labeling. For ADCC (FIG. 15C), infected cells were used as target cells in a FACS-based ADCC assay that measures the killing of infected (p24+ cells). See, Madani, 2016, J. Virol., 90:5031-5046. The assay determines susceptibility to ADCC mediated by a 1/1,000 dilution of plasma from 15 HIV-1-infected individuals in the presence of the different MCG analogs (50 μM), (+)-BNM-III-170 (50 μM) or with an equivalent volume of vehicle (DMSO). Correlation between cell-surface staining with HIV+ plasma and ADCC was calculated using the Spearman rank correlation (FIG. 15D).

Point of comparison: O=C(Nc1ccc(Cl)c(F)c1)[C@H]1CCCN(S(=O)(=O)C2CCCCC2)C1 [(S)-MCG-III-116-A03], fold induction at 50 µM 1.56. Against it:
- O=C(Nc1ccc(Cl)c(F)c1)C1CCN(S(=O)(=O)c2ccccc2)C1 (centres unmarked) [MCG-III-157-A03] — higher, 1.57

tested on: HIV-1JR-FL EnvΔCT expressed at the surface of HOS cells; assay: Cell-based ELISA (CBE), 17b readout; details: MCG analogs 50 μM; BNM-III-170 5 μM; 2G12 and DMSO normalized
Experimental: Detection of trimeric HIV-1 Env at the surface of HOS cells was performed by cell-based ELISA, as described in Desormeaux, “The highly conserved layer-3 component of the HIV-1 gp120 inner domain is critical for CD4-required conformational transitions,” J. Virol. 87:2549-2562; Alsahafi, “Effects of the I559P gp41 change on the conformation and function of the human immunodeficiency virus (HIV-1) membrane envelope glycoprotein trimer,” 2015, PLoS One 10:e0122111; and Veillette, “Conformational evaluation of HIV-1 trimeric envelope glycoproteins using a cell-based ELISA assay,” 2014, J. Vis. Exp., 91:51995. To enhance cell-surface expression of HIV-1 EnvRF a stop codon was introduced to replace the codon for Gly 711, truncating the cytoplasmic tail (ACT). Briefly, HOS cells were seeded in T-75 flasks (3×10^6 cells per flask) and transfected the next day with 22.5 μg of Env-expressing plasmids (wild-type and mutants S375W, S375T, H66A, A582T/L587A, etc) using the standard polyethylenimine (PEI, Polyscience Inc, PA, USA) transfection method. Twenty-four hours after transfection, cells were plated in 384-wells plates (2×10^4 cells per well). One day later, cells were washed twice with blocking buffer (10 mg/mL non-fat dry milk, 1.8 mM CaCl2), 1 mM MgCl2, 25 mM Tris, pH 7.5 and 140 mM NaCl) and then incubated for 30 minutes at room temperature with different concentrations of MCG analogs or equivalent volume of vehicle (DMSO). Cells were then incubated for an additional 1 h at room temperature with anti-HIV-1 Env monoclonal antibodies recognizing CD4-induced gp120 epitopes (17b, A32), CD4-binding site gp120 epitopes (VRC03, VRC01, F105, and b12), gp120 V3 glycans (19b, PGT126, PGT122, and 10.1074), gp120 outer domain (2G12), and gp120-gp41 interface (PGT151 and VRC34) epitopes. All ligands were diluted in blocking buffer. A horseradish peroxidase-conjugated antibody specific for the Fc region of human or mouse IgG (Pierce) was then incubated with the samples for 45 minutes at room temperature. For all conditions, cells were washed 5 times with blocking buffer and 5 times with washing buffer (1.8 mM CaCl2), 1 mM MgCl2, 25 mM Tris, pH 7.5 and 140 mM NaCl). HRP enzyme activity was determined after the addition of 20 μl per well of a 1:1 mix of Western Lightning oxidizing and luminol reagents (Perkin Elmer Life Sciences). Light emission was measured with an LB 941 TriStar luminometer (Berthold Technologies) and analysis with Graph Pad software.
The data of Table 2 is given as the fold over BNM-III-170 (5 μM) of Cell-Based ELISA with MCG Analogs (50 μM)—17b readout, 2G12 and DMSO normalized.
To identify molecules able to expose vulnerable Env epitopes, a cell-based ELISA (CBE) assay was adapted, capable of measuring conformational changes of membrane-bound trimeric Env as described in Veillette, 2014, J. Vis. Exp. doi:10.3791/51995:51995; Haim, 2011, PLoS Pathog 7:e1002101, into a high-throughput screening (HTS) platform (FIG. 10A). Briefly, the cytoplasmic-tail deleted HIV-1JR-FL Tier-2/3 Env was expressed on the surface of HOS cells in a 384-well-plate format. The cytoplasmic tail of Env was deleted to enhance Env expression at the cell surface and therefore enhance the sensitivity of the CBE assay. See, Veilette and Haim, 2009, PLoS Pathog 5:e100036. Small molecules or, as a positive control, soluble (sCD4) were added to expose the HIV-1JR-FL EnvΔCT epitope that can be recognized by the CD4i antibody 17b. See, Wyatt, 1995, J. Virol. 69:5723-5733; Rizzuto, 1998, Science 280:1949-1953.
17b binding was detected by a horseradish peroxidase-conjugated (HRP) second antibody, and HRP enzyme activity was measured by Western Lightning oxidizing and luminal reagents. 17b binding in the presence of sCD4 was set as the control (FIG. 10B, blue dots), small molecules that enhanced 17b binding above 25% of the one induced by sCD4 were retested in quadruplicate and only one molecule (UM0059920) was deemed a true positive (FIG. 10B, red dots). […]

Point of comparison: NCCOC(=O)N1C[C@H](N)C[C@H](C(=O)Nc2ccc(Cl)c(F)c2)C1 [(3R,5S)-MCG-IV-272], “Fold over BNM-III-170 - 17b binding (±0.05)” value 0.07 fold. Against it:
- CNC(=N)N1CCC[C@H](C(=O)Nc2ccc(Cl)c(F)c2)C1 [(S)-MCG-IV-053-A01] — higher, 0.42 fold
- O=C(Nc1ccc(Cl)c(F)c1)C1CCN(S(=O)(=O)c2ccccc2)C1 (centres unmarked) [MCG-III-157-A03] — higher, 0.33 fold
- CCNC(=O)N1CCC[C@H](C(=O)Nc2ccc(Cl)c(F)c2)C1 [(S)-MCG-IV-031-A02] — higher, 0.37 fold
- CC(C)CNC(=O)N1CCC[C@H](C(=O)Nc2ccc(C(F)(F)F)c(F)c2)C1 [(S)-MCG-IV-063-A06] — higher, 0.36 fold
- CN(C)C(=O)N1CCC[C@H](C(=O)Nc2ccc(Cl)c(F)c2)C1 [(S)-MCG-IV-031-A03] — higher, 0.71 fold
- NCCNC(=O)N1C[C@H](N)C[C@H](C(=O)Nc2ccc(Cl)c(F)c2)C1 [(3R,5S)-MCG-IV-273] — lower, 0.06 fold
- CN(C)C(=O)N1CCC[C@H](C(=O)Nc2ccc(C(F)(F)F)c(F)c2)C1 [(S)-MCG-IV-063-A03] — higher, 0.48 fold
- NCCOC(=O)N1CCC[C@H](C(=O)Nc2ccc(Cl)c(F)c2)C1 [(S)-MCG-IV-267] — higher, 0.30 fold
- O=C(Nc1ccc(Cl)c(F)c1)[C@H]1CCCN(S(=O)(=O)C2CCCCC2)C1 [(S)-MCG-III-116-A03] — higher, 0.36 fold
- CC(C)COC(=O)N1CCC[C@H](C(=O)Nc2ccc(Cl)c(F)c2)C1 [(S)-MCG-IV-061] — higher, 0.62 fold
- CNC(=O)N1CCC[C@H](C(=O)Nc2ccc(C(F)(F)F)c(F)c2)C1 [(S)-MCG-IV-063-A01] — higher, 0.33 fold
- CCOC(=O)N1CCC[C@H](C(=O)Nc2ccc(C(F)(F)F)c(F)c2)C1 [(S)-MCG-IV-050-A02] — higher, 0.49 fold
- CS(=O)(=O)N1CCC[C@@H](C(=O)Nc2ccc(Cl)cc2)C1 [(R)-MCG-II-156] — higher, 0.08 fold
- CCCNC(=N)N1CCC[C@H](C(=O)Nc2ccc(Cl)c(F)c2)C1 [(S)-MCG-IV-053-A05] — higher, 0.85 fold
- CCNC(=O)N1CCC[C@H](C(=O)Nc2ccc(C(F)(F)F)c(F)c2)C1 [(S)-MCG-IV-063-A02] — higher, 0.35 fold
- CC(C)CNC(=N)N1CCC[C@H](C(=O)Nc2ccc(Cl)c(F)c2)C1 [(S)-MCG-IV-053-A06] — higher, 0.60 fold
- CCN(C)C(=O)N1CCC[C@H](C(=O)Nc2ccc(Cl)c(F)c2)C1 [(S)-MCG-IV-031-A04] — higher, 0.54 fold
- NCCCNC(=O)N1CCC[C@H](C(=O)Nc2ccc(Cl)c(F)c2)C1 [(S)-MCG-IV-211] — higher, 0.25 fold
- CCCNC(=O)N1C[C@H](N)C[C@H](C(=O)Nc2ccc(Cl)c(F)c2)C1 [(3R,5S)-MCG-IV-226] — higher, 0.11 fold
- CCCOC(=O)N1CCC[C@H](C(=O)Nc2ccc(Cl)c(F)c2)C1 [(S)-MCG-IV-058] — higher, 0.51 fold
- COC(=O)N1CCC[C@H](C(=O)Nc2ccc(C(F)(F)F)c(F)c2)C1 [(S)-MCG-IV-050-A01] — higher, 0.44 fold
- CC(C)CNC(=O)N1CCC[C@H](C(=O)Nc2ccc(Cl)c(F)c2)C1 [(S)-MCG-IV-031-A06] — higher, 0.42 fold
- CCCNC(=O)N1CCC[C@H](C(=O)Nc2ccc(C(F)(F)F)c(F)c2)C1 [(S)-MCG-IV-063-A05] — higher, 0.45 fold
- CS(=O)(=O)N1CCC[C@H](C(=O)Nc2ccc(C(F)(F)F)c(F)c2)C1 [(S)-MCG-IV-024-A02] — higher, 0.38 fold
- NCCCNC(=O)N1C[C@H](N)C[C@H](C(=O)Nc2ccc(Cl)c(F)c2)C1 [(3R,5S)-MCG-IV-274] — lower, 0.06 fold
- CCS(=O)(=O)N1CCC[C@H](C(=O)Nc2ccc(C(F)(F)F)c(F)c2)C1 [(S)-MCG-IV-024-B02] — higher, 0.36 fold

With CS(=O)(=O)N1CCC[C@H](C(=O)Nc2ccc(Cl)cc2)C1 [(S)-MCG-II-153] the “Fold over BNM-III-170 - 17b binding (±0.05)” value was 0.20 fold and 0.31 fold.

same assay, conditions: high-throughput screen follow-up; sCD4 as control; result in words

For CS(=O)(=O)N1CCC[C@@H](C(=O)Nc2ccc(Cl)cc2)C1 [(R)-MCG-II-156], the “17b binding in the CBE assay (screening hit and enantiomers)” value was “not”.
CS(=O)(=O)N1CCC[C@H](C(=O)Nc2ccc(Cl)cc2)C1 [(S)-MCG-II-153] was tested, and the “17b binding in the CBE assay (screening hit and enantiomers)” value was “enhanced 17b binding to similar levels as UM0059920; also recorded: active enantiomer”.
